Reference: ChEMBL document CHEMBL5500371, “Arginine and tryptophan-rich dendritic antimicrobial peptides that disrupt membranes for bacterial infection in vivo” (Eur J Med Chem, 2024)
Converted amounts (≈) assume the structure as drawn. Where a SMILES comes first, the peptide text is derived from it. Side-chain parts run from the residue outwards.

Key:
Klebsiella pneumoniae = test: Antibacterial activity against Klebsiella pneumoniae ATCC 700603 assessed as inhibition of bacterial growth incubated for 20 hrs by broth microdilution method; assay type: functional
Escherichia coli = test: Antibacterial activity against Escherichia coli ATCC 25922 assessed as inhibition of bacterial growth incubated for 20 hrs by broth microdilution method; assay type: functional
Bacillus subtilis = test: Antibacterial activity against Bacillus subtilis ATCC 23857 assessed as inhibition of bacterial growth incubated for 20 hrs by broth microdilution method; assay type: functional
Acinetobacter baumannii = test: Antibacterial activity against Acinetobacter baumannii ATCC 19606 assessed as inhibition of bacterial growth incubated for 20 hrs by broth microdilution method; assay type: functional
Staphylococcus aureus = test: Antibacterial activity against Staphylococcus aureus ATCC 25923 assessed as inhibition of bacterial growth incubated for 20 hrs by broth microdilution method; assay type: functional
Pseudomonas aeruginosa = test: Antibacterial activity against Pseudomonas aeruginosa ATCC 27853 assessed as inhibition of bacterial growth incubated for 20 hrs by broth microdilution method; assay type: functional
[1] = Cytotoxicity against HEK293T cells assessed as cell death measured after 1 hr by resazurin dye based analysis; assay type: toxicity, HEK-293T; details: human, HEK293T cells
Erythrocyte = test: Hemolytic activity in mouse erythrocytes assessed as 10% hemolysis incubated for 1 hr by absorbance based analysis; assay type: toxicity, cell-based

Compound	MIC (Klebsiella pneumoniae)	MIC (Escherichia coli)	MIC (Bacillus subtilis)	MIC (Acinetobacter baumannii)	MIC (Staphylococcus aureus)	MIC (Pseudomonas aeruginosa)	CC50 at 1 h [1]	MHC10 (Erythrocyte)
CN[C@H](CC(C)C)C(=O)N[C@H]1C(=O)N[C@@H](CC(N)=O)C(=O)N[C@H]2C(=O)N[C@H]3C(=O)N[C@H](C(=O)N[C@H](C(=O)O)c4cc(O)cc(O)c4-c4cc3ccc4O)[C@H](O)c3ccc(c(Cl)c3)Oc3cc2cc(c3O[C@@H]2O[C@H](CO)[C@@H](O)[C@H](O)[C@H]2O[C@H]2C[C@](C)(N)[C@H](O)[C@H](C)O2)Oc2ccc(cc2Cl)[C@H]1O [VANCOMYCIN]	128 µM (≈ 186 µg/mL)	64 µM (≈ 92.8 µg/mL)	< 1 µM	64 µM (≈ 92.8 µg/mL)	< 1 µM	> 128 µM		
N=C(N)NCCC[C@H](NC(=O)[C@H](CCCNC(=N)N)NC(=O)[C@H](CCCCNC(=O)[C@@H](N)Cc1c[nH]c2ccccc12)NC(=O)[C@@H](N)Cc1c[nH]c2ccccc12)C(N)=O (H-WK(Trp)RR-NH2)	> 128 µM	> 128 µM	> 128 µM	> 128 µM	> 128 µM	> 128 µM	> 128 µM	> 256 µM
N=C(N)NCCC[C@H](NC(=O)[C@H](CCCCN)NC(=O)[C@H](Cc1c[nH]c2ccccc12)NC(=O)[C@@H](N)Cc1c[nH]c2ccccc12)C(N)=O (H-WWKR-NH2)	> 128 µM	> 128 µM	> 128 µM	> 128 µM	> 128 µM	> 128 µM	> 128 µM	> 256 µM
N=C(N)NCCC[C@H](N)C(=O)NCCCC[C@H](NC(=O)[C@@H](N)CCCNC(=N)N)C(=O)N[C@@H](Cc1c[nH]c2ccccc12)C(=O)N[C@@H](Cc1c[nH]c2ccccc12)C(N)=O (H-RK(Arg)WW-NH2)	> 128 µM	> 128 µM	128 µM (≈ 106 µg/mL)	> 128 µM	> 128 µM	> 128 µM	> 128 µM	> 256 µM
N=C(N)NCCC[C@H](NC(=O)[C@H](CCCNC(=N)N)NC(=O)[C@H](CCCNC(=N)N)NC(=O)[C@H](CCCCNC(=O)[C@H](Cc1c[nH]c2ccccc12)NC(=O)[C@@H](N)Cc1c[nH]c2ccccc12)NC(=O)[C@H](Cc1c[nH]c2ccccc12)NC(=O)[C@@H](N)Cc1c[nH]c2ccccc12)C(N)=O (H-WWK([Trp-Trp])RRR-NH2)	> 128 µM	> 128 µM	16 µM (≈ 21.7 µg/mL)	128 µM (≈ 174 µg/mL)	16 µM (≈ 21.7 µg/mL)	> 128 µM	> 128 µM	> 256 µM
N=C(N)NCCC[C@H](N)C(=O)NCCCC[C@H](NC(=O)[C@@H](N)CCCNC(=N)N)C(=O)N[C@@H](Cc1c[nH]c2ccccc12)C(=O)N[C@@H](Cc1c[nH]c2ccccc12)C(=O)N[C@@H](Cc1c[nH]c2ccccc12)C(N)=O (H-RK(Arg)WWW-NH2)	> 128 µM	> 128 µM	32 µM (≈ 32.5 µg/mL)	> 128 µM	32 µM (≈ 32.5 µg/mL)	32 µM (≈ 32.5 µg/mL)	> 128 µM	> 256 µM
N=C(N)NCCC[C@H](NC(=O)[C@H](CCCCNC(=O)[C@@H](N)Cc1c[nH]c2ccccc12)NC(=O)[C@@H](N)Cc1c[nH]c2ccccc12)C(N)=O (H-Trp-Lys(Trp)-Arg-NH2)	> 128 µM	> 128 µM	128 µM (≈ 86.2 µg/mL)	> 128 µM	> 128 µM	> 128 µM	> 128 µM	> 256 µM
H-WWKRRR-NH2	> 128 µM	> 128 µM	64 µM	> 128 µM	> 128 µM	> 128 µM	> 128 µM	> 256 µM
N=C(N)NCCC[C@H](NC(=O)[C@H](CCCNC(=N)N)NC(=O)[C@H](CCCNC(=N)N)NC(=O)[C@H](CCCNC(=N)N)NC(=O)[C@H](CCCNC(=N)N)NC(=O)[C@H](CCCCNC(=O)[C@H](Cc1c[nH]c2ccccc12)NC(=O)[C@@H](N)Cc1c[nH]c2ccccc12)NC(=O)[C@H](Cc1c[nH]c2ccccc12)NC(=O)[C@@H](N)Cc1c[nH]c2ccccc12)C(N)=O (H-WWK([Trp-Trp])RRRRR-NH2)	64 µM (≈ 107 µg/mL)	8 µM (≈ 13.4 µg/mL)	8 µM (≈ 13.4 µg/mL)	32 µM (≈ 53.5 µg/mL)	8 µM (≈ 13.4 µg/mL)	32 µM (≈ 53.5 µg/mL)	> 128 µM	> 256 µM
H-WWWWKRRRRR-NH2	32 µM	16 µM	8 µM	32 µM	8 µM	16 µM	116 µM	> 256 µM
N=C(N)NCCC[C@H](NC(=O)[C@@H](N)CCCNC(=N)N)C(=O)NCCCC[C@H](NC(=O)[C@H](CCCNC(=N)N)NC(=O)[C@@H](N)CCCNC(=N)N)C(=O)N[C@@H](Cc1c[nH]c2ccccc12)C(=O)N[C@@H](Cc1c[nH]c2ccccc12)C(=O)N[C@@H](Cc1c[nH]c2ccccc12)C(N)=O (H-RRK([Arg-Arg])WWW-NH2)	64 µM (≈ 85 µg/mL)	16 µM (≈ 21.3 µg/mL)	4 µM (≈ 5.31 µg/mL)	> 128 µM	16 µM (≈ 21.3 µg/mL)	16 µM (≈ 21.3 µg/mL)	> 128 µM	> 256 µM
H-RRKWWW-NH2	> 128 µM	64 µM	16 µM	128 µM	64 µM	128 µM	> 128 µM	> 256 µM
H-RRKWW-NH2	> 128 µM	> 128 µM	64 µM	> 128 µM	> 128 µM	> 128 µM	> 128 µM	> 256 µM
N=C(N)NCCC[C@H](N)C(=O)NCCCC[C@H](NC(=O)[C@@H](N)CCCNC(=N)N)C(=O)N[C@@H](Cc1c[nH]c2ccccc12)C(N)=O (H-Arg-Lys(Arg)-Trp-NH2)	> 128 µM	> 128 µM	> 128 µM	> 128 µM	> 128 µM	> 128 µM	> 128 µM	> 256 µM

The remaining compounds from weak to strong by MIC (Klebsiella pneumoniae), led by results:

MIC (Klebsiella pneumoniae)	MIC (Escherichia coli)	MIC (Bacillus subtilis)	MIC (Acinetobacter baumannii)	MIC (Staphylococcus aureus)	MIC (Pseudomonas aeruginosa)	Compound	CC50 at 1 h [1]	MHC10 (Erythrocyte)
32 µM	32 µM	16 µM	32 µM	32 µM	32 µM	H-WWWWWWKRRRRRRR-NH2	46.6 µM	27.86 µM
32 µM	16 µM	8 µM	32 µM	8 µM	32 µM	H-RRRRRRKWWWWWWW-NH2	101 µM	19.48 µM
32 µM (≈ 70.4 µg/mL)	32 µM (≈ 70.4 µg/mL)	8 µM (≈ 17.6 µg/mL)	32 µM (≈ 70.4 µg/mL)	16 µM (≈ 35.2 µg/mL)	16 µM (≈ 35.2 µg/mL)	N=C(N)NCCC[C@H](NC(=O)[C@H](CCCNC(=N)N)NC(=O)[C@H](CCCNC(=N)N)NC(=O)[C@H](CCCNC(=N)N)NC(=O)[C@H](CCCNC(=N)N)NC(=O)[C@H](CCCNC(=N)N)NC(=O)[C@H](CCCCNC(=O)[C@H](Cc1c[nH]c2ccccc12)NC(=O)[C@H](Cc1c[nH]c2ccccc12)NC(=O)[C@@H](N)Cc1c[nH]c2ccccc12)NC(=O)[C@H](Cc1c[nH]c2ccccc12)NC(=O)[C@H](Cc1c[nH]c2ccccc12)NC(=O)[C@@H](N)Cc1c[nH]c2ccccc12)C(N)=O (H-WWWK([Trp-Trp-Trp])RRRRRR-NH2)	41.7 µM	17.61 µM
32 µM (≈ 70.4 µg/mL)	32 µM (≈ 70.4 µg/mL)	16 µM (≈ 35.2 µg/mL)	32 µM (≈ 70.4 µg/mL)	32 µM (≈ 70.4 µg/mL)	32 µM (≈ 70.4 µg/mL)	N=C(N)NCCC[C@H](NC(=O)[C@H](CCCNC(=N)N)NC(=O)[C@@H](N)CCCNC(=N)N)C(=O)NCCCC[C@H](NC(=O)[C@H](CCCNC(=N)N)NC(=O)[C@H](CCCNC(=N)N)NC(=O)[C@@H](N)CCCNC(=N)N)C(=O)N[C@@H](Cc1c[nH]c2ccccc12)C(=O)N[C@@H](Cc1c[nH]c2ccccc12)C(=O)N[C@@H](Cc1c[nH]c2ccccc12)C(=O)N[C@@H](Cc1c[nH]c2ccccc12)C(=O)N[C@@H](Cc1c[nH]c2ccccc12)C(=O)N[C@@H](Cc1c[nH]c2ccccc12)C(N)=O (H-RRRK([Arg-Arg-Arg])WWWWWW-NH2)	34 µM	22.12 µM
16 µM	16 µM	8 µM	32 µM	8 µM	32 µM	H-WWWWWWKRRRRRR-NH2	45 µM	34.63 µM
16 µM (≈ 27.2 µg/mL)	16 µM (≈ 27.2 µg/mL)	8 µM (≈ 13.6 µg/mL)	32 µM (≈ 54.4 µg/mL)	16 µM (≈ 27.2 µg/mL)	16 µM (≈ 27.2 µg/mL)	N=C(N)NCCC[C@H](NC(=O)[C@@H](N)CCCNC(=N)N)C(=O)NCCCC[C@H](NC(=O)[C@H](CCCNC(=N)N)NC(=O)[C@@H](N)CCCNC(=N)N)C(=O)N[C@@H](Cc1c[nH]c2ccccc12)C(=O)N[C@@H](Cc1c[nH]c2ccccc12)C(=O)N[C@@H](Cc1c[nH]c2ccccc12)C(=O)N[C@@H](Cc1c[nH]c2ccccc12)C(=O)N[C@@H](Cc1c[nH]c2ccccc12)C(N)=O (H-RRK([Arg-Arg])WWWWW-NH2)	58.8 µM	51.32 µM
16 µM (≈ 32.2 µg/mL)	16 µM (≈ 32.2 µg/mL)	8 µM (≈ 16.1 µg/mL)	32 µM (≈ 64.4 µg/mL)	16 µM (≈ 32.2 µg/mL)	16 µM (≈ 32.2 µg/mL)	N=C(N)NCCC[C@H](NC(=O)[C@H](CCCNC(=N)N)NC(=O)[C@@H](N)CCCNC(=N)N)C(=O)NCCCC[C@H](NC(=O)[C@H](CCCNC(=N)N)NC(=O)[C@H](CCCNC(=N)N)NC(=O)[C@@H](N)CCCNC(=N)N)C(=O)N[C@@H](Cc1c[nH]c2ccccc12)C(=O)N[C@@H](Cc1c[nH]c2ccccc12)C(=O)N[C@@H](Cc1c[nH]c2ccccc12)C(=O)N[C@@H](Cc1c[nH]c2ccccc12)C(=O)N[C@@H](Cc1c[nH]c2ccccc12)C(N)=O	41.4 µM	91.08 µM
